Reference: the NIST ThermoML archive (doi:10.1016/j.fluid.2013.08.005)

Experiment: mn = molality of the nth substance listed, in mol/kg
Conditions: 298.15 K, 101 kPa, Liquid; for electrical conductivity: Alternating current cell with electrodes; for mass density: Vibrating tube method

CCCCCC[N+](C)(C)C.[Br-] [hexyltrimethylammonium bromide] + O
Conditions	electrical conductivity [S/m]	mass density [kg/m3]
m1 = 0.02501	0.446	997.79
m1 = 0.05001	0.641	998.57
m1 = 0.07505	0.99	999.34
m1 = 0.125	1.02	1000.88
m1 = 0.13	1.15	1001.05
m1 = 0.15	1.3	1001.64
m1 = 0.1751	1.72	1002.41
m1 = 0.25	1.85	1004.69
m1 = 0.2751	2.08	1005.39
m1 = 0.3251	2.2	1006.85
m1 = 0.3501	2.41	1007.63
m1 = 0.4001	2.51	1009.06
m1 = 0.425	2.79	1009.77
m1 = 0.5001	3.53	1011.89
m1 = 0.7503	3.83	1018.71
m1 = 0.8791	4.07	1021.99
m1 = 1	0.239	1025.02
m1 = 1.501	–	1036.33
m1 = 2.001	–	1046
